From BigSolDB 2.1

NC(=O)c1ccc([N+](=O)[O-])cc1
solubility (mole fraction)
Conditions | 283.15 K | 288.15 K | 293.15 K | 298.15 K | 303.15 K | 308.15 K | 313.15 K | 318.15 K | 323.15 K | 328.15 K
in DMF | 0.037 | 0.0416 | 0.0492 | 0.0576 | 0.0691 | 0.0811 | 0.0945 | 0.109 | 0.123 | 0.139
in DMSO | – | – | 0.0372 | 0.0425 | 0.0504 | 0.0613 | 0.0747 | 0.0888 | 0.103 | 0.117
in NMP | 0.0418 | 0.0472 | 0.0549 | 0.0653 | 0.0775 | 0.0917 | 0.108 | 0.125 | 0.144 | 0.169
in acetonitrile | 0.000628 | 0.000806 | 0.000994 | 0.00126 | 0.00155 | 0.00195 | 0.00232 | 0.0028 | 0.00332 | 0.00396
in ethanol | 0.00157 | 0.00182 | 0.00231 | 0.00287 | 0.00351 | 0.00429 | 0.00513 | 0.00616 | 0.00735 | 0.00882
in ethyl acetate | 0.00203 | 0.00236 | 0.00286 | 0.00376 | 0.00471 | 0.00583 | 0.00706 | 0.0086 | 0.0103 | 0.0122
in ethylene glycol | 0.00356 | 0.00417 | 0.00496 | 0.006 | 0.00719 | 0.00873 | 0.0102 | 0.0119 | 0.0138 | 0.0164
in isobutanol | 0.000751 | 0.000942 | 0.00119 | 0.0015 | 0.00187 | 0.00233 | 0.00286 | 0.00342 | 0.00403 | 0.00467
in isopropanol | 0.00127 | 0.0015 | 0.00185 | 0.0023 | 0.00286 | 0.00341 | 0.00408 | 0.00492 | 0.00579 | 0.00677
in n-butanol | 0.000449 | 0.000554 | 0.000712 | 0.000907 | 0.00116 | 0.00144 | 0.00176 | 0.00213 | 0.00253 | 0.00301
in n-propanol | 0.00096 | 0.00119 | 0.00151 | 0.00189 | 0.00228 | 0.00276 | 0.00327 | 0.00381 | 0.00447 | 0.00533
in water | 0.000322 | 0.000395 | 0.000498 | 0.0006 | 0.000754 | 0.000924 | 0.00112 | 0.00137 | 0.00161 | 0.00186
